Where a name gives a salt, the structure may show the parent alone.
Assays:
[1] = for log P (HCOOH) / logp [b]: pH 2.7; for logp [a]: pH 2.3; for logp [c]: pH 7.8
Text: (§1) The determination is effected in the acidic range at pH 2.3 using 0.1% aqueous phosphoric acid and acetonitrile as eluents; linear gradient from 10% acetonitrile to 95% acetonitrile. • ^[b] The LC-MS determination in the acidic range is effected at pH 2.7 using 0.1% aqueous formic acid and acetonitrile (contains 0.1% formic acid) as eluents; linear gradient from 10% acetonitrile to 95% acetonitrile. • ^[c] The LC-MS determination in the neutral range is effected at pH 7.8 using 0.001 molar aqueous ammonium hydrogencarbonate solution and acetonitrile as eluents; linear gradient from 10% acetonitrile to 95% acetonitrile.
(§2) The calibration is effected with unbranched alkan-2-ones (having 3 to 16 carbon atoms) with known log P values (determination of the log P values using the retention times by linear interpolation between two successive alkanones).

Plasmopara viticola = experiment: Plasmopara test (grapevine)/protective; type: in vivo; details: grapevine plants, protective spray, 10 ppm active ingredient, evaluation 6 days after inoculation, 0% = control, 100% = no infection; for pest or weed control at 10 ppm: Plasmopara viticola, 144 h, read-out: efficacy
Experimental: Plasmopara Test (Grapevine)/Protective
To prepare an appropriate active ingredient preparation, 1 part by weight of active ingredient is mixed with the stated amounts of solvent and emulsifier, and the concentrate is diluted with water to the desired concentration.
To test for protective efficacy, young plants are sprayed with the active ingredient preparation at the stated application rate. After the spray coating has dried on, the plants are inoculated with an aqueous spore suspension of Plasmopara viticola and then remain in an incubation cabinet at about 20° C. and 100% relative atmospheric humidity for 1 day. The plants are then placed in a greenhouse at approx. 21° C. and approx. 90% air humidity for 4 days. The plants are then moistened and placed in an incubation cabinet for 1 day.
Evaluation follows 6 days after the inoculation.

Phytophthora infestans = experiment: whole plant or invertebrate; type: in vivo; details: for pest or weed control at 10 ppm: Phytophthora infestans, in Solanum lycopersicum, 72 h, read-out: efficacy

Text for physchem: as §1, §2

## CC(C)(C)OC(=O)N1CCC(F)(c2nc(C=NO)cs2)CC1 (mixture of isomers) [tert-Butyl 4-fluoro-4-{4-[(E/Z)-(hydroxyimino)methyl]-1,3-thiazol-2-yl}piperidine-1-carboxylate]
[1]
  log P (HCOOH): 2.53

## O=C(Cn1nc(C(F)F)cc1C(F)F)N1CCC(F)(c2nc(C3=NOC(c4ccccc4F)C3)cs2)CC1 (racemic) [I-4]
Plasmopara viticola
  efficacy: 100%
[1]
  logp [b]: 3.49^[b]

## CCCCOCc1ccccc1C1CC(c2csc(C3CCN(C(=O)Cn4nc(C(F)F)cc4C(F)F)CC3)n2)=NO1 (racemic) [I-16]
[1]
  logp [b]: 4.24^[b]

## CC#CCOc1cccc(F)c1C1CC(c2csc(C3CCN(C(=O)Cn4nc(C(F)F)cc4C(F)F)CC3)n2)=NO1 (racemic) [I-29]
[1]
  logp [a]: 3.46^[a];
  logp [c]: 3.42^[c]

## C#CCOc1cccc(F)c1C1CC(c2csc(C3CCN(C(=O)Cn4nc(C(F)F)cc4C(F)F)CC3)n2)=NO1 (racemic) [I-30]
[1]
  logp [a]: 3.18^[a];
  logp [c]: 3.15^[c]

## O=C(Oc1ccccc1C1CC(c2csc(C3CCN(C(=O)Cn4nc(C(F)F)cc4C(F)F)CC3)n2)=NO1)C1CC1 (racemic) [I-33]
[1]
  logp [a]: 3.34^[a]
  logp [c]: 3.28^[c];

## CCC#CCOc1cccc(C2CC(c3csc(C4CCN(C(=O)Cn5nc(C(F)F)cc5C(F)F)CC4)n3)=NO2)c1 (racemic) [I-34]
[1]
  logp [a]: 3.83^[a]
  logp [c]: 3.74^[c];

## CC#CCOc1ccccc1C1CC(c2csc(C3CCN(C(=O)Cn4nc(C(F)F)cc4C(F)F)CC3)n2)=NO1 (racemic) [I-35]
Phytophthora infestans; tomato plants, protective spray, 10 ppm active ingredient, evaluation 3 days after inoculation, 0% = control, 100% = no infection
  efficacy: 88%
[1]
  logp [a]: 3.65^[a]
  logp [c]: 3.55^[c];

## O=C(CC(F)(F)F)Oc1ccccc1C1CC(c2csc(C3CCN(C(=O)Cn4nc(C(F)F)cc4C(F)F)CC3)n2)=NO1 (racemic) [I-36]
[1]
  logp [a]: 9.43^[a];
  logp [c]: 3.52^[c]

## CCC#CCOc1ccc(C2CC(c3csc(C4CCN(C(=O)Cn5nc(C(F)F)cc5C(F)F)CC4)n3)=NO2)cc1 (racemic) [I-47]
[1]
  logp [a]: 3.76^[a]
  logp [c]: 3.74^[c];

## CC#CCOc1ccc(C2CC(c3csc(C4CCN(C(=O)Cn5nc(C(F)F)cc5C(F)F)CC4)n3)=NO2)cc1 (racemic) [I-48]
[1]
  logp [a]: 3.43^[a]
  logp [c]: 3.42^[c];

## O=C(Cn1nc(C(F)F)cc1C(F)F)N1CCC(c2nc(C3=NOC(c4ccccc4COCC(F)(F)F)C3)cs2)CC1 (racemic) [I-52]
[1]
  logp [b]: 3.4^[b]
  logp [c]: 3.6^[c];

## CCS(=O)(=O)Cc1ccccc1C1CC(c2csc(C3CCN(C(=O)Cn4nc(C(F)F)cc4C(F)F)CC3)n2)=NO1 (racemic) [I-53]
[1]
  logp [b]: 2.76^[b]

## O=C(Cn1nc(C(F)F)cc1C(F)F)N1CCC(c2nc(C=NO)cs2)CC1 [2-(1-{[3,5-Bis(difluoromethyl)-1H-pyrazol-1-yl]acetyl}piperidin-4-yl)-1,3-thiazole-4-carbaldehyde oxime]
[1]
  log P (HCOOH): 1.98
physchem; pH 2.7, log P (HCOOH)
  chromatographic logP: 1.93

## N=C(N)SCc1ccccc1C1CC(c2csc(C3CCN(C(=O)Cn4nc(C(F)F)cc4C(F)F)CC3)n2)=NO1 (centres unmarked) [2-{3-[2-(1-{[3,5-Bis(difluoromethyl)-1H-pyrazol-1-yl]acetyl}piperidin-4-yl)-1,3-thiazol-4-yl]-4,5-dihydro-1,2-oxazol-5-yl}benzyl imidothiocarbamate]
[1]
  log P (HCOOH): 1.68

## O=C(Cn1nc(C(F)F)cc1C(F)F)N1CCC(F)(c2nc(C3=NOC(c4ccccc4)C3)cs2)CC1 (centres unmarked) [I-5, 2-[3,5-bis(difluoromethyl)-1H-pyrazol-1-yl]-1-{4-fluoro-4-[4-(5-phenyl-4,5-dihydro-1,2-oxazol-3-yl)-1,3-thiazol-2-yl]piperidin-1-yl}ethanone]
Phytophthora infestans
  pest or weed control at 10 ppm: 93%
Plasmopara viticola
  pest or weed control at 10 ppm: 97%
physchem; pH 2.7, log P (HCOOH)
  chromatographic logP: 3.41
physchem; pH 2.7, logp [b]
  chromatographic logP: 3.41

## O=C(Cn1nc(C(F)F)cc1C(F)F)N1CCC(c2nc(C3=NOC(c4ccccc4O)C3)cs2)CC1 (centres unmarked) [I-9, 2-[3,5-Bis(difluoromethyl)-1H-pyrazol-1-yl]-1-(4-{4-[5-(2-hydroxyphenyl)-4,5-dihydro-1,2-oxazol-3-yl]-1,3-thiazol-2-yl}piperidin-1-yl)ethanone]
Phytophthora infestans
  pest or weed control at 10 ppm: 96%
Plasmopara viticola
  pest or weed control at 10 ppm: 99%
physchem; pH 2.3
  chromatographic logP: 2.58
physchem; pH 7.8, logp [c]
  chromatographic logP: 2.6

## O=C(Cn1nc(C(F)F)cc1C(F)F)N1CCC(c2nc(C3=NOC(c4ccccc4[N+](=O)[O-])C3)cs2)CC1 (centres unmarked) [I-10, 2-[3,5-Bis(difluoromethyl)-1H-pyrazol-1-yl]-1-(4-{4-[5-(2-nitrophenyl)-4,5-dihydro-1,2-oxazol-3-yl]-1,3-thiazol-2-yl}piperidin-1-yl)ethanone]
Phytophthora infestans
  pest or weed control at 10 ppm: 97%
Plasmopara viticola
  pest or weed control at 10 ppm: 100%
physchem; pH 2.7, logp [b]
  chromatographic logP: 3.19

## C=CCOc1ccccc1C1CC(c2csc(C3CCN(C(=O)Cn4nc(C(F)F)cc4C(F)F)CC3)n2)=NO1 (centres unmarked) [I-14, 1-[4-(4-{5-[2-(Allyloxy)phenyl]-4,5-dihydro-1,2-oxazol-3-yl}-1,3-thiazol-2-yl)piperidin-1-yl]-2-[3,5-bis(difluoromethyl)-1H-pyrazol-1-yl]ethanone]
Phytophthora infestans
  pest or weed control at 10 ppm: 98%
Plasmopara viticola
  pest or weed control at 10 ppm: 100%
physchem; pH 2.7, logp [b]
  chromatographic logP: 3.63
physchem; pH 7.8, logp [c]
  chromatographic logP: 3.65

## COCCOc1ccccc1C1CC(c2csc(C3CCN(C(=O)Cn4nc(C(F)F)cc4C(F)F)CC3)n2)=NO1 (centres unmarked) [I-19, 2-[3,5-Bis(difluoromethyl)-1H-pyrazol-1-yl]-1-[4-(4-{5-[2-(2-methoxyethoxy)phenyl]-4,5-dihydro-1,2-oxazol-3-yl}-1,3-thiazol-2-yl)piperidin-1-yl]ethanone]
Phytophthora infestans
  pest or weed control at 10 ppm: 96%
Plasmopara viticola
  pest or weed control at 10 ppm: 96%
physchem; pH 2.7, logp [b]
  chromatographic logP: 3.26
physchem; pH 7.8, logp [c]
  chromatographic logP: 3.18

## CC(C)(C)OC(=O)N1CCC(c2nc(C3=NOC(c4ccccc4OCC4CCCCC4)C3)cs2)CC1 (centres unmarked) [X-a-7, tert-butyl 4-(4-{5-[2-(cyclohexylmethoxy)phenyl]-4,5-dihydro-1,2-oxazol-3-yl}-1,3-thiazol-2-yl)piperidine-1-carboxylate]
physchem; pH 2.7, log P (pH2.7)
  chromatographic logP: 6.3

## COC(=O)c1ccccc1C1CC(c2csc(C3CCN(C(=O)OC(C)(C)C)CC3)n2)=NO1 (centres unmarked) [X-a-8, tert-butyl 4-(4-{5-[2-(methoxycarbonyl)phenyl]-4,5-dihydro-1,2-oxazol-3-yl}-1,3-thiazol-2-yl)piperidine-1-carboxylate]
physchem; pH 2.7, log P (HCOOH)
  chromatographic logP: 4.14

## CC(C)(C)OC(=O)N1CCC(c2nc(C3=NOC(c4ccccc4C(=O)O)C3)cs2)CC1 (centres unmarked) [X-a-9, 2-(3-{2-[1-(tert-butoxycarbonyl)piperidin-4-yl]-1,3-thiazol-4-yl}-4,5-dihydro-1,2-oxazol-5-yl)benzoic acid]
physchem; pH 2.7, log P (HCOOH)
  chromatographic logP: 3.18

## CC(C)(C)OC(=O)N1CCC(c2nc(C3=NOC(c4c(F)cccc4C=O)C3)cs2)CC1 (centres unmarked) [X-a-13, tert-Butyl 4-{4-[5-(2-fluoro-6-formylphenyl)-4,5-dihydro-1,2-oxazol-3-yl]-1,3-thiazol-2-yl}piperidine-1-carboxylate]
physchem; pH 2.7, log P (HCOOH)
  chromatographic logP: 3.62

## CC(C)(C)OC(=O)N1CCC(c2nc(-c3cc(-c4ccccc4C=O)on3)cs2)CC1 [X-b-1, tert-butyl 4-{4-[5-(2-formylphenyl)-1,2-oxazol-3-yl]-1,3-thiazol-2-yl}piperidine-1-carboxylate]
physchem; pH 2.7, log P (HCOOH)
  chromatographic logP: 4.1

## FC1(c2nc(C3=NOC(c4ccccc4)C3)cs2)CCNCC1 (centres unmarked) [XII-1, 4-fluoro-4-[4-(5-phenyl-4,5-dihydro-1,2-oxazol-3-yl)-1,3-thiazol-2-yl]piperidinium chloride]
physchem; pH 2.7, log P (HCOOH)
  chromatographic logP: 1.17

## CC(=O)c1ccccc1C1CC(c2csc(C3CCNCC3)n2)=NO1 (centres unmarked) [XII-2, 1-(2-{3-[2-(Piperidin-4-yl)-1,3-thiazol-4-yl]-4,5-dihydro-1,2-oxazol-5-yl}phenyl)ethanone hydrochloride]
physchem; pH 2.7, log P (HCOOH)
  chromatographic logP: 0.96

## O=Cc1ccccc1C1CC(c2csc(C3CCNCC3)n2)=NO1 (centres unmarked) [XII-3, 2-{3-[2-(Piperidin-4-yl)-1,3-thiazol-4-yl]-4,5-dihydro-1,2-oxazol-5-yl}benzaldehyde hydrochloride]
physchem; pH 2.7, log P (HCOOH)
  chromatographic logP: 0.76

## CS(=O)(=O)Nc1ccccc1C1CC(c2csc(C3CCNCC3)n2)=NO1 (centres unmarked) [XII-4, 4-[4-(5-{2-[(Methylsulphonyl)amino]phenyl}-4,5-dihydro-1,2-oxazol-3-yl)-1,3-thiazol-2-yl]piperidinium chloride]
physchem; pH 2.7, log P (HCOOH)
  chromatographic logP: 0.72

## Oc1ccccc1C1CC(c2csc(C3CCNCC3)n2)=NO1 (centres unmarked) [XII-5, 4-{4-[5-(2-Hydroxyphenyl)-4,5-dihydro-1,2-oxazol-3-yl]-1,3-thiazol-2-yl}piperidinium chloride]
physchem; pH 2.7, log P (pH2.7)
  chromatographic logP: 0.69

## O=[N+]([O-])c1ccccc1C1CC(c2csc(C3CCNCC3)n2)=NO1 (centres unmarked) [XII-6, 4-{4-[5-(2-Nitrophenyl)-4,5-dihydro-1,2-oxazol-3-yl]-1,3-thiazol-2-yl}piperidinium chloride]
physchem; pH 2.7, log P (pH2.7)
  chromatographic logP: 1.09

## c1ccc(C2CC(c3csc(C4CCNCC4)n3)=NO2)c(OCC2CCCCC2)c1 (centres unmarked) [XII-7, 4-(4-{5-[2-(Cyclohexylmethoxy)phenyl]-4,5-dihydro-1,2-oxazol-3-yl}-1,3-thiazol-2-yl)piperidinium chloride]
physchem; pH 2.7, log P (pH2.7)
  chromatographic logP: 1.9

## tert-Butyl 4-[4-(5-{2-[(cyclopropylmethoxy)carbonyl]phenyl}-4,5-dihydro-1,2-oxazol-3-yl)-1,3-thiazol-2-yl]piperidine-1-carboxylate [X-a-10]
[1]
  log P (HCOOH): 4.99
